# Results: ChEMBL document CHEMBL1143571 (J Med Chem, 2005)
# How the values were obtained:
# D(4) dopamine receptor [1] = biological target: T1, D(4) dopamine receptor (Homo sapiens, UniProt P21917); format: cell-based, CHO
# T1 sequence (P21917 whole entry): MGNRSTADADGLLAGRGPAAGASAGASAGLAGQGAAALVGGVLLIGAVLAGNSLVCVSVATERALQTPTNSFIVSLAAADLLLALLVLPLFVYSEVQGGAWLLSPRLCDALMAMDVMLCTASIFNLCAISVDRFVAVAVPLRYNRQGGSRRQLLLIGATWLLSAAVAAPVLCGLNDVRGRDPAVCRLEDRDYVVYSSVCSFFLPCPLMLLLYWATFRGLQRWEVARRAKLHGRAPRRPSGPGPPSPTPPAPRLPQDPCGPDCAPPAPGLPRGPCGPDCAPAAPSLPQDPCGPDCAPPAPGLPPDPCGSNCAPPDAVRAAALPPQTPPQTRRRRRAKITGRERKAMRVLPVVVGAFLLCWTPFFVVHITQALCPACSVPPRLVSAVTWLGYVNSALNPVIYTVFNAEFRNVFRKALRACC
# D(4) dopamine receptor [2] = biological target: T1, D(4) dopamine receptor; format: cell-based, CHO; remark: listed apart in the source
# Description: High inhibition constant against [3H]spiperone binding to human Dopamine receptor D4.4 expressed in CHO cells
# D(4) dopamine receptor [3] = biological target: T1, D(4) dopamine receptor
# Description: Effective concentration to stimulate human Dopamine receptor D4.2 mediated [3H]thymidine incorporation into growing cells using mitogenesis assay
# D(1A) dopamine receptor = D(1A) dopamine receptor (Bos taurus, UniProt Q95136); assay: Inhibition constant against [3H]SCH-23390 binding to Dopamine receptor D1 in bovine striatal membranes; format: cell membranes, Striatum, Membrane
# D(2) dopamine receptor [4] = biological target: T2, D(2) dopamine receptor (Rattus norvegicus, UniProt P61169); assay: Effective concentration to stimulate rat Dopamine receptor D2L mediated [3H]thymidine incorporation into growing cells using mitogenesis assay
# D(2) dopamine receptor [5] = biological target: T2, D(2) dopamine receptor; assay: Effective concentration to stimulate rat Dopamine receptor D2S mediated [3H]thymidine incorporation into growing cells using mitogenesis assay
# D(2) dopamine receptor [6] = biological target: T3, D(2) dopamine receptor (Homo sapiens, UniProt P14416); format: cell-based, CHO
# D(2) dopamine receptor [7] = biological target: T3, D(2) dopamine receptor; format: cell-based, CHO; remark: listed apart in the source
# D(2) dopamine receptor [8] = biological target: T3, D(2) dopamine receptor; format: cell-based, CHO; remark: listed apart in the source
# Description: High inhibition constant against [3H]spiperone binding to human Dopamine receptor D2L expressed in CHO cells
# D(2) dopamine receptor [9] = biological target: T3, D(2) dopamine receptor; format: cell-based, CHO; remark: listed apart in the source
# [10] = biological target: D(2) dopamine receptor (Rattus norvegicus) (UniProt P61169); assay: Intrinsic activity to sitmulate rat Dopamine receptor D2L mediated [3H]thymidine incorporation into growing cells using mitogenesis assay
# [11] = biological target: D(2) dopamine receptor (Rattus norvegicus) (UniProt P61169); assay: Intrinsic activity to stimulate rat Dopamine receptor D2S mediated [3H]-thymidine incorporation into growing cells using mitogenesis assay
# D(3) dopamine receptor [12] = biological target: T4, D(3) dopamine receptor (Homo sapiens, UniProt P35462); format: cell-based, CHO
# Description: Inhibition constant against [3H]-spiperone binding to human Dopamine receptor D3 expressed in CHO cells
# D(3) dopamine receptor [13] = biological target: T4, D(3) dopamine receptor
# Description: Effective concentration to stimulate human Dopamine receptor D3 mediated [3H]-thymidine incorporation into growing cells using mitogenesis assay
# D(3) dopamine receptor [14] = biological target: T4, D(3) dopamine receptor; remark: listed apart in the source
# D(3) dopamine receptor [15] = biological target: T4, D(3) dopamine receptor; remark: listed apart in the source
# T4 sequence (P35462 whole entry): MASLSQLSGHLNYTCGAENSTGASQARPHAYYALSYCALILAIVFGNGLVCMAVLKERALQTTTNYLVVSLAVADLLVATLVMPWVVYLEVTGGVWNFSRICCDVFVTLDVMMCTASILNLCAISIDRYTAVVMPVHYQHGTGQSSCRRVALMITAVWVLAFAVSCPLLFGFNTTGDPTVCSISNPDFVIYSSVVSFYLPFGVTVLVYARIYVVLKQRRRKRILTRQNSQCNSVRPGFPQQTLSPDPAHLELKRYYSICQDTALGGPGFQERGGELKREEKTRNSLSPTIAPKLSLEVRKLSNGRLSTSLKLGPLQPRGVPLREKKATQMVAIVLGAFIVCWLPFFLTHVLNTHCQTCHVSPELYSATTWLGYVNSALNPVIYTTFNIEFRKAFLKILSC
# Sequence of D(1A) dopamine receptor (Q95136 whole entry): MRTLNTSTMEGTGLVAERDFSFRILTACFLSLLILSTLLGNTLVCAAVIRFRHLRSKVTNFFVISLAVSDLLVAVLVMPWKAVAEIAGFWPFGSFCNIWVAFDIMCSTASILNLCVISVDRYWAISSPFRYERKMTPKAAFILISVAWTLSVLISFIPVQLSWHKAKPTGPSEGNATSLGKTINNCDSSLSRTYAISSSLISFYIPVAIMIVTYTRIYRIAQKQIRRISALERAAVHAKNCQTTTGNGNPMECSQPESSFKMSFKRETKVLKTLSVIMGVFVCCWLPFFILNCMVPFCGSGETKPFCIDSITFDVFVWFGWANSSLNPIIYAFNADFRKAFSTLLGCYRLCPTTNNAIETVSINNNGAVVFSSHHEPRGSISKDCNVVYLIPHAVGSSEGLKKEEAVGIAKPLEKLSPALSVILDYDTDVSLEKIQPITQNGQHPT
# T2 sequence (P61169 whole entry): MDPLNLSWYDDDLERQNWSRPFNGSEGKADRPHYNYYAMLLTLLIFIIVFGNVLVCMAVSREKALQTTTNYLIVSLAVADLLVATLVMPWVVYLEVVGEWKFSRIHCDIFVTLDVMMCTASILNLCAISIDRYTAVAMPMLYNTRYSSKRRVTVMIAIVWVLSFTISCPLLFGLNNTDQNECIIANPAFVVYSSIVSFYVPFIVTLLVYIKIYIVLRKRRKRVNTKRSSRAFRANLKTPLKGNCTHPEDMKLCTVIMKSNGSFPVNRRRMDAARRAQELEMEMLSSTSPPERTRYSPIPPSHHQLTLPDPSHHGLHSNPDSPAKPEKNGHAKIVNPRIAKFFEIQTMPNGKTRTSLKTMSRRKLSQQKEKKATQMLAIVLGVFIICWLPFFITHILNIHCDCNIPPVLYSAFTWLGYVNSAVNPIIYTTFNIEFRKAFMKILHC
# Sequence of D(2) dopamine receptor (Rattus norvegicus) (P61169 whole entry): as above
# T3 sequence (P14416 whole entry): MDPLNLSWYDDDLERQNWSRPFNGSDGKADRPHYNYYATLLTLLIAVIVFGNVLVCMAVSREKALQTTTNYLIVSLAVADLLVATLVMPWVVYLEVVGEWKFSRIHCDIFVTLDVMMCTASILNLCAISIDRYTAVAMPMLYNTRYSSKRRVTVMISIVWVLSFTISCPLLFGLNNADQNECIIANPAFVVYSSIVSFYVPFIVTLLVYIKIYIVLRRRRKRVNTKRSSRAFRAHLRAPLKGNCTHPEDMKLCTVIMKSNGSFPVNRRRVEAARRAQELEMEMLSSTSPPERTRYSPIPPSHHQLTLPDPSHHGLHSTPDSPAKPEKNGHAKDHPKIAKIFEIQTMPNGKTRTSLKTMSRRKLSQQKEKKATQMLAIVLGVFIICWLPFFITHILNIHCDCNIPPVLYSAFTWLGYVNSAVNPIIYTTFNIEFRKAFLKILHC
Structure (SMILES),Ki (D(3) dopamine receptor [12]),also measured
CCCN(CCC)[C@@H]1CCn2c(ccc2-c2ccccc2)C1,2400 nM,
CCCN(CCC)[C@H]1CCn2c(ccc2C(=O)c2ccccc2)C1,1910 nM,
CCCN(CCC)[C@@H]1CCn2c(ccc2C(=O)C(F)(F)F)C1,2510 nM,
CCCN(CCC)[C@H]1CCn2c(ccc2C(=O)OCC)C1,4370 nM,
CCCN(CCC)[C@H]1CCn2c(ccc2CN(C)C)C1,3630 nM,
CCCN(CCC)[C@@H]1CCn2c(/C=N\O)ccc2C1,4790 nM,
Oc1ccc2c(c1O)-c1cccc3c1[C@@H](C2)NCC3,58.9 nM,
CCCN(CCC)[C@@H]1CCn2cccc2C1,1660 nM,
CCCN(CCC)[C@H]1CCn2cc(C)cc2C1,794 nM,
CCCN(CCC)[C@@H]1CCn2c(ccc2C(=O)c2ccccc2)C1,1550 nM,
CCCN(CCC)[C@@H]1CCn2c(C#N)ccc2C1,2820 nM,
CCCN(CCC)[C@@H]1CCn2c(/C=N/O)ccc2C1,2090 nM,
CCCN(CCC)[C@@H]1CCn2c(C=C(C#N)C#N)ccc2C1,6030 nM,
CCCN(CCC)[C@@H]1CCn2c(ccc2C(C)=O)C1,2820 nM,
CCCN(CCC)[C@H]1CCn2cccc2C1,575 nM,
CCCN(CCC)[C@H]1CCn2ccc(C)c2C1,676 nM,
CCCN(CCC)[C@@H]1CCn2ccc(C=O)c2C1,501 nM,
CCCN(CCC)[C@@H]1CCn2c(C)ccc2C1,617 nM,
CCCN(CCC)[C@@H]1CCn2c(ccc2CN(C)C)C1,12000 nM,
CCCN(CCC)[C@@H]1CCn2c(CO)ccc2C1,724 nM,
CCCN(CCC)[C@H]1CCn2c(ccc2-c2ccccc2)C1,7940 nM,
CCCN(CCC)[C@@H]1CCn2c(ccc2C(=O)OCC)C1,324 nM,
CCCN(CCC)[C@H]1CCn2c(C)ccc2C1,417 nM,
CCCN(CCC)[C@@H]1CCn2ccc(C)c2C1,1450 nM,
CCCN[C@H]1CCc2nc(N)sc2C1 [PRAMIPEXOLE],,Ki (D(1A) dopamine receptor): > 20000 nM; Intrinsic activity [10]: 85%; Intrinsic activity [11]: 103%
CCCN(CCC)[C@@H]1CCn2cc(C)cc2C1,912 nM,

# Continued, in another order:
Ki (D(3) dopamine receptor [12]),Structure (SMILES),also measured
5.25 nM,CCCN(CCC)[C@H]1CCn2c(C=O)ccc2C1,Ki (D(4) dopamine receptor [1]): 2500 nM; Ki (D(4) dopamine receptor [2]): 32 nM; EC50 (D(4) dopamine receptor [3]): 4200 nM; Ki (D(1A) dopamine receptor): > 20000 nM; EC50 (D(2) dopamine receptor [4]): 11 nM; EC50 (D(2) dopamine receptor [5]): 79 nM; Ki (D(2) dopamine receptor [6]): 6900 nM; Ki (D(2) dopamine receptor [7]): 3000 nM; Ki (D(2) dopamine receptor [8]): 52 nM; Ki (D(2) dopamine receptor [9]): 41 nM; Intrinsic activity [10]: 98%; Intrinsic activity [11]: 101%; EC50 (D(3) dopamine receptor [13]): 1.1 nM; Ki (D(3) dopamine receptor [14]): 5.3 nM
7.24 nM,CCCN(CCC)[C@H]1CCn2c(C#N)ccc2C1,Ki (D(4) dopamine receptor [1]): 9700 nM; Ki (D(4) dopamine receptor [2]): 40 nM; Ki (D(1A) dopamine receptor): > 20000 nM; EC50 (D(2) dopamine receptor [4]): 42 nM; EC50 (D(2) dopamine receptor [5]): 130 nM; Ki (D(2) dopamine receptor [6]): 6500 nM; Ki (D(2) dopamine receptor [7]): 5100 nM; Ki (D(2) dopamine receptor [8]): 190 nM; Ki (D(2) dopamine receptor [9]): 130 nM; Intrinsic activity [10]: 99%; Intrinsic activity [11]: 95%; EC50 (D(3) dopamine receptor [13]): 2.4 nM; Ki (D(3) dopamine receptor [15]): 140 nM; Ki (D(3) dopamine receptor [14]): 7.2 nM
60.3 nM,CCCN(CCC)[C@H]1CCn2c(C=C(C#N)C#N)ccc2C1,
49 nM,CCCN(CCC)[C@H]1CCn2c(/C=N\O)ccc2C1,
38.9 nM,CCCN(CCC)[C@H]1CCc2c(ccn2C=O)C1,
87.1 nM,CCCN(CCC)[C@@H]1CCn2c(ccc2C(=O)C(Cl)(Cl)Cl)C1,
263 nM,CCCN(CCC)[C@H]1CCn2c(ccc2C(=O)C(Cl)(Cl)Cl)C1,
30.9 nM,CCCN(CCC)[C@H]1CCn2c(/C=N/O)ccc2C1,
324 nM,CCCN(CCC)[C@@H]1CCn2ccc(CO)c2C1,
22.9 nM,CCCN(CCC)[C@H]1CCn2c(ccc2C(=O)C(F)(F)F)C1,
43.7 nM,CCCN(CCC)[C@@H]1CCc2c(ccn2C=O)C1,
45.7 nM,CCCN(CCC)[C@H]1CCn2c(ccc2C(C)=O)C1,
